Results taken from US20250325531A1, “TREATMENT OF SYSTOLIC DYSFUNCTION” (MyoKardia, Inc., priority 2024, published 2025).

Experiment: Single ascending oral dose pharmacokinetics in healthy volunteers (plasma and urine, LC MS/MS)
Type: in vivo, human
Conditions: for dose recovered in urine: 0-48 hours urine
Text: This example describes the first-in-human study of Compound I. Based on its mechanism of action, Compound I may offer a targeted therapy for patients with DCM caused by genetic or nongenetic mechanisms. The study was a randomized, double-blind, placebo-controlled, sequential group, single-ascending (oral) dose study in healthy subjects aged 18-55 years. Eight dosing cohorts, each comprising eight healthy subjects, were enrolled. Within each cohort, subjects were randomized 6:2 to Compound I: placebo.
Subjects were resident at the clinical site for up to 5 days and 4 nights, from Day-1 (the day before dosing) to Day 4, and received a single dose of Compound I or placebo on Day 1. ECG telemetry was initiated 1 hour predose and continued through 48 hours postdose (Day 3). Any subject with a predose resting HR ≥80 beats per minute was considered ineligible and not treated. […] Subjects returned for a safety follow-up visit 7 days (+1 day) after dosing.
All randomized study subjects received either Compound I or matching placebo as a single oral dose after a fasting period of at least 6 hours. Compound I drug substance is a crystalline, free-base, synthetic molecule with a molecular weight of 435.4 g/mol.
Compound I was provided as a powder for oral suspension. Placebo was provided as calcium carbonate powder. Both treatments were dosed orally as a suspension. The suspension was made using Ora-Plus® suspending vehicle (Perrigo) and a cherry syrup flavoring vehicle (Humco), mixed 50% to 50%. The suspension was followed by approximately 100 mL water. The suspension was made up within 14 days from the time in which it was dosed which was consistent with the stability data on the suspension. The suspension was made up so the volume administered to the subjects who received Compound I was the same at 20 mL.
Each subject received a dose according to the cohort in which they were enrolled. Cohorts were enrolled sequentially, with each cohort receiving an escalated dose of Compound I. The doses administered were 3 mg, 10 mg, 25 mg, 50 mg, 100 mg, 175 mg, 350 mg, and 525 mg, respectively.
The concentrations of Compound I in human plasma and urine were quantitated by high performance liquid chromatography with tandem mass spectrometric detection (LC MS/MS) (Biological sample analysis study report Alturas AD17-726). Plasma samples were extracted by protein precipitation with acetonitrile containing internal standard MYK-5654. The calibration curves were linear over concentration range of 0.500 to 1000 ng/mL with a lower limit of quantification (LLOQ) of 0.500 ng/mL.
The PK Population included all subjects who received Compound I. Blood samples were collected for PK assessments. The actual timing of the samples may have been modified and/or up to an additional 2 samples may have been requested by the SRC after review of the data from previous cohorts. It was important that PK sampling occurred as closely as possible to the scheduled time (+10%). Both blood and urine samples were used for PK assessments.
In addition, for subjects who received placebo, a single plasma sample near the predicted tmax of Compound I was evaluated to confirm the lack of circulating Compound I. Plasma concentration data for Compound I was summarized using descriptive statistics, including mean, standard deviation (SD), median, minimum, and maximum values, and percent coefficient of variation. Other PK parameters included (but were not limited to) Cmax, tmax, AUC, t1/2, and MRT. Additionally, the apparent terminal-phase terminal half-life was calculated. The dose proportionality of AUC and Cmax was explored.

Cn1cc(S(=O)(=O)[C@@](C)(F)C2CCN(C(=O)Nc3ccon3)CC2)c(C(F)F)n1 [Compound I, (R)-4-(1-((3-(difluoromethyl)-1-methyl-1H-pyrazol-4-yl)sulfonyl)-1-fluoroethyl)-N-(isoxazol-3-yl) piperidine-1-carboxamide]
dose recovered in urine (350 mg): approximately 6.0% | dose recovered in urine (525 mg): ~8.6% | AUC0-48 Geometric Mean (3 mg): 676.32 ng·h/mL | AUC0-last Median (3 mg): 713.41 ng·h/mL | AUC0-∞ Geometric Mean (3 mg): 722.23 ng·h/mL | CL/F Geometric Mean (3 mg): 4.15 L/h | CL/F Mean (3 mg): 4.26 L/h | CL/F Median (3 mg): 4.22 L/h | Extrapolation Geometric Mean (3 mg): 2.71% | Extrapolation Mean (3 mg): 2.78% | Extrapolation Median (3 mg): 2.82% | Half-Life Lambda Z Geometric Mean (3 mg): 11.10 h | CL/F Geometric Mean (10 mg): 2.99 L/h | CL/F Mean (10 mg): 3.06 L/h | CL/F Median (10 mg): 2.88 L/h | Cmax Mean (10 mg): 139.17 ng/mL | Extrapolation Geometric Mean (10 mg): 1.59% | Extrapolation Mean (10 mg): 1.90% | Extrapolation Median (10 mg): 2.24% | Half-Life Lambda Z Mean (10 mg): 13.36 h | Mean Residence Time Geometric Mean (10 mg): 21.06 h | Tmax Geometric Mean (10 mg): 4.80 h | Tmax Mean (10 mg): 4.85 h | AUC0-last Geometric Mean (25 mg): 6924.51 ng·h/mL | AUC0-last Mean (25 mg): 7161.62 ng·h/mL | CL/F Geometric Mean (25 mg): 3.55 L/h | CL/F Mean (25 mg): 3.69 L/h | CL/F Median (25 mg): 3.32 L/h | Extrapolation Geometric Mean (25 mg): 1.45% | Extrapolation Mean (25 mg): 1.72% | Extrapolation Median (25 mg): 1.92% | Half-Life Lambda Z Geometric Mean (25 mg): 13.14 h | Half-Life Lambda Z Mean (25 mg): 13.28 h | Mean Residence Time Geometric Mean (25 mg): 20.60 h | Mean Residence Time Median (25 mg): 20.07 h | Tmax Geometric Mean (25 mg): 4.64 h | Tmax Mean (25 mg): 4.67 h | AUC0-last Geometric Mean (50 mg): 11075.03 ng·h/mL | AUC0-last Median (50 mg): 11185.34 ng·h/mL | AUC0-∞ Geometric Mean (50 mg): 11177.07 ng·h/mL | AUC0-∞ Median (50 mg): 11204.30 ng·h/mL | CL/F Geometric Mean (50 mg): 4.47 L/h | CL/F Mean (50 mg): 4.53 L/h | CL/F Median (50 mg): 4.46 L/h | Extrapolation Geometric Mean (50 mg): 0.46% | Extrapolation Mean (50 mg): 0.91% | Extrapolation Median (50 mg): 0.46% | Mean Residence Time Geometric Mean (50 mg): 20.79 h | Mean Residence Time Mean (50 mg): 20.98 h | Tmax Geometric Mean (50 mg): 4.66 h | Tmax Mean (50 mg): 4.69 h | AUC0-48 Median (100 mg): 21561.98 ng·h/mL | AUC0-last Geometric Mean (100 mg): 21734.19 ng·h/mL | AUC0-last Median (100 mg): 22401.00 ng·h/mL | CL/F Geometric Mean (100 mg): 4.69 L/h | CL/F Mean (100 mg): 4.76 L/h | CL/F Median (100 mg): 5.33 L/h | Extrapolation Geometric Mean (100 mg): 0.36% | Extrapolation Mean (100 mg): 5.48% | Extrapolation Median (100 mg): 0.14% | Half-Life Lambda Z Geometric Mean (100 mg): 11.08 h | Tmax Mean (100 mg): 4.50 h | AUC0-48 Median (175 mg): 32704.35 ng·h/mL | AUC0-last Geometric Mean (175 mg): 38235.62 ng·h/mL | CL/F Geometric Mean (175 mg): 4.57 L/h | CL/F Mean (175 mg): 4.66 L/h | CL/F Median (175 mg): 4.45 L/h | Cmax Geometric Mean (175 mg): 1301.37 ng/mL | Cmax Mean (175 mg): 1316.17 ng/mL | Extrapolation Geometric Mean (175 mg): 0.14% | Extrapolation Mean (175 mg): 0.17% | Extrapolation Median (175 mg): 0.16% | Half-Life Lambda Z Mean (175 mg): 15.83 h | Mean Residence Time Geometric Mean (175 mg): 24.44 h | Mean Residence Time Median (175 mg): 24.43 h | Tmax Geometric Mean (175 mg): 5.07 h | Tmax Mean (175 mg): 5.11 h | AUC0-24 Geometric Mean (350 mg): 44703.88 ng·h/mL | AUC0-48 Median (350 mg): 66430.88 ng·h/mL | AUC0-last Geometric Mean (350 mg): 73185.05 ng·h/mL | AUC0-last Median (350 mg): 76161.9 ng·h/mL | AUC0-∞ Geometric Mean (350 mg): 73626.42 ng·h/mL | AUC0-∞ Median (350 mg): 76241.22 ng·h/mL | CL/F Geometric Mean (350 mg): 4.75 L/h | CL/F Mean (350 mg): 4.95 L/h | CL/F Median (350 mg): 4.75 L/h | Extrapolation Geometric Mean (350 mg): 0.37% | Extrapolation Mean (350 mg): 0.60% | Extrapolation Median (350 mg): 0.43% | Half-Life Lambda Z Mean (350 mg): 14.66 h | Mean Residence Time Median (350 mg): 22.73 h | Tmax Geometric Mean (350 mg): 4.84 h | Tmax Mean (350 mg): 4.95 h | AUC0-24 Median (350 mg + 525 mg): 38537.03 ng·h/mL | AUC0-∞ Mean (350 mg + 525 mg): 74358.88 ng·h/mL | CL/F Geometric Mean (350 mg + 525 mg): 6.04 L/h | CL/F Mean (350 mg + 525 mg): 6.51 L/h | CL/F Median (350 mg + 525 mg): 6.10 L/h | Extrapolation Geometric Mean (350 mg + 525 mg): 0.29% | Extrapolation Mean (350 mg + 525 mg): 0.59% | Extrapolation Median (350 mg + 525 mg): 0.32% | Half-Life Lambda Z Geometric Mean (350 mg + 525 mg): 14.51 h | Mean Residence Time Mean (350 mg + 525 mg): 24.28 h | Tmax Geometric Mean (350 mg + 525 mg): 4.89 h | Tmax Mean (350 mg + 525 mg): 4.96 h | AUC0-24 Median (525 mg): 38212.84 ng·h/mL | AUC0-48 Geometric Mean (525 mg): 56964.59 ng·h/mL | AUC0-last Geometric Mean (525 mg): 68111.84 ng·h/mL | AUC0-∞ Geometric Mean (525 mg): 68514.68 ng·h/mL | CL/F Geometric Mean (525 mg): 7.66 L/h | CL/F Mean (525 mg): 8.07 L/h | CL/F Median (525 mg): 7.64 L/h | Cmax Geometric Mean (525 mg): 2294.46 ng/mL | Cmax Mean (525 mg): 2350.00 ng/mL | Extrapolation Geometric Mean (525 mg): 0.22% | Extrapolation Mean (525 mg): 0.59% | Extrapolation Median (525 mg): 0.23% | Half-Life Lambda Z Geometric Mean (525 mg): 14.70 h | Half-Life Lambda Z Median (525 mg): 13.77 h | Tmax Geometric Mean (525 mg): 4.94 h | Tmax Mean (525 mg): 4.97 h | dose proportionality slope (power model) (all doses, 95% CI 0.8358-0.9417): 0.8888
